# Source: patent US5616732A, “Intermediates for difluoroprostacyclins and methods for their production” (Asahi Glass Company Ltd., priority 1994, dated 1997)
# Where two headings read alike, the source gives them in different places.
# Legend:
# [1] = Stability test in an aqueous solution; assay type: physicochemical; conditions: for half-life / remaining at 168 h / remaining at 480 h: physiological saline, 25° C., 10 μg/ml in physiological sodium chloride solution; for remaining at 168 h: 7 days, read-out: Remaining ratio 7 days; for remaining at 480 h: 20 days, read-out: Remaining ratio 20 days
# Description: A test compound was dissolved in ethanol to a concentration of 1 mg/ml. Then, it was diluted with a physiological sodium chloride solution to obtain a solution having a concentration of 10 μg/ml. The solution was stored at 25° C., and the remaining ratio of the test compound was measured as time passed. The remaining ratio was quantitatively analyzed by an internal standard (methyl benzoate) method using high performance liquid chromatography (Shimadzu LC9A, SPC-6AU; Milipore 805-DS). The column used was YMC AM312 (ODS), and the eluent used was a solvent mixture of acetonitrile and a 1% triethylamine-phosphoric acid buffer solution (pH6.3).
# [2] = test system: human platelets; assay: Platelet aggregation inhibitory activities in vitro (ADP-induced, human platelet-rich plasma); assay type: cell-based; conditions: for IC50: Homo sapiens, Platelet, ADP final concentration 4 μM, 37° C.; for platelet aggregation inhibitory activities (in words): compared with natural type prostacyclin or other compounds
# Description: Platelet aggregation inhibitory activities of test compounds in vitro were measured by using human platelets.
# Into a plastic container containing one volume of a 3.8% sodium citrate solution, 9 volumes of blood of a healthy person was collected, and the container was gently turned over for admixing. The mixture was centrifugally separated at 1,000 rpm for 10 minutes at room temperature, whereupon the supernatant was taken as a platelet-rich plasma (PRP). The lower layer was further centrifugally separated at 3,000 rpm for 15 minutes at room temperature, whereupon the supernatant was taken as a platelet-poor plasma (PPP). PRP was diluted with PPP so that the number of platelets became about 30×10^4 /μl. An aggregometer was calibrated, and then 200 μl of PRP thus prepared was heated at 37° C. for one minute. Then, 25 μl of a solution obtained by diluting a test compound with a physiological sodium chloride solution, was added thereto, and the mixture was heated at 37° C. for one minute. Then, […] of an adenosine-5'-1.5 sodium diphosphate (ADP, Sigma) solution was added thereto so that the final concentration would be 4 μM, whereby the change in transmittance was recorded by the aggregometer. The transmittance was measured with respect to the solution immediately after dissolving the test compound in the physiological sodium chloride solution and the solution after leaving it at 25° C. for 24 hours. The solution of the test compound was dissolved in a physiological sodium chloride solution and then used by diluting it with a physiological sodium chloride solution.
# Aggregation inhibition (%)=(1-T/T0)×100
# T0 : Transmittance in the case where the physiological sodium chloride solution was added.
# T: Transmittance in the case where the test compound was added.
# [3] = cited from earlier work
# [4] = solution immediately after dissolving, read-out: IC50 Immediately after preparation
# [5] = solution left at 25° C. for 24 hours, read-out: IC50 24 hours later
Compound,half-life [1],remaining at 168 h [1],remaining at 480 h [1],"IC50 [2, 4]","IC50 [2, 5]",half-life ([3]; reported in literature),platelet aggregation inhibitory activities (in words) [2],chemical stability (in words) [1],physiological activities (in words) ([2]; stated generally as physiological activities),"half-life ([3]; as mentioned above, conditions not restated)",half-life in an aqueous solution ([3]; pH7.48 at 25° C.)
"CCC#CCC(C)[C@@H](O)/C=C/[C@@H]1[C@@H]2[C@H](C[C@H]1O)O/C(=C\CCCC(=O)O)C2(F)F (stereo partly drawn) [Compound 25, sodium 5-[(1S,5R,6R,7R)-2-oxa-4,4-difluoro-7-hydroxy-6-{(3R,4RS)-3-hydroxy-4-methyl-E-1-none-6-ynyl}bicyclo[3.3.0]octan-3-ylidene]pentanoate]",> 90 days,101%,99.8%,0.027 µg/mL,0.0281 µg/mL,,,,,,
"CCCCC[C@H](O)/C=C/[C@@H]1[C@H]2C/C(=C/CCCC(=O)O)O[C@H]2C[C@H]1O [PGI2 Na, reference compound]",,,,0.0021 µg/mL,> 0.2 µg/mL,,,,,,
"CCCCC[C@H](O)C#C[C@@H]1[C@H]2C/C(=C/CCCC(=O)O)O[C@H]2C(F)(F)[C@H]1O [10,10-difluoro-13,14-dehydroprostacyclin]",,,,,,about 24 hours,,,,,
CCC#CC[C@H](C)[C@@H](O)/C=C/[C@@H]1[C@@H]2[C@H](C[C@H]1O)O/C(=C\CCCC(=O)O)C2(F)F [Compound 27],> 90 days,99.5%,100%,0.0084 µg/mL,0.008 µg/mL,,activities close to natural type prostacyclin,,,,
"Cc1cccc(C[C@H](O)/C=C/[C@@H]2[C@@H]3[C@H](C[C@H]2O)O/C(=C\CCCC(=O)O)C3(F)F)c1 [Compound 21, sodium 5-[(1S,5R,6R,7R)-2-oxa-4,4-difluoro-7-hydroxy-6-{(3S)-3-hydroxy-4-(3-methylphenyl)-E-1-butenyl}bicyclo[3.3.0]octan-3-ylidene]pentanoate]",> 90 days,101%,100%,0.0087 µg/mL,0.0089 µg/mL,,,,,,
"CCCCC[C@H](O)C#C[C@@H]1[C@@H]2[C@H](C[C@H]1O)O/C(=C\CCCC(=O)O)C2(F)F [Compound 31, sodium 5-[(1S,5R,6R,7R)-2-oxa-4,4-difluoro-7-hydroxy-6-{(3S)-3-hydroxy-1-octynyl}bicyclo[3.3.0]octan-3-ylidene]pentanoate, reference compound]",> 90 days,99.5%,97%,0.0737 µg/mL,0.0758 µg/mL,,low activities as compared with other compounds,chemical stability substantially equal to other compounds,physiological activities are inadequate and substantially lower than natural type prostacyclin,,
"O=C(O)CCC/C=C1\O[C@H]2C[C@@H](O)[C@H](/C=C/[C@@H](O)C3CCCC3)[C@H]2C1(F)F [Compound 13, sodium 5-[(1S,5R,6R,7R)-2-oxa-4,4-difluoro-7-hydroxy-6-{(3S)-3-cyclopentyl-3-hydroxy-E-1-propenyl}bicylco[3.3.0]octan-3-ylidene]pentanoate]",> 90 days,100%,98%,0.0663 µg/mL,0.0629 µg/mL,,,,,,
CCCCC[C@H](O)/C=C/[C@@H]1[C@H]2C/C(=C/CCCC(=O)O)O[C@H]2C[C@H]1O [natural type prostacyclin],,,,,,,,,,about 10 minutes,0.00729 days
"Cc1cccc(C[C@@H](O)/C=C/[C@@H]2[C@@H]3[C@H](C[C@H]2O)O/C(=C\CCCC(=O)O)C3(F)F)c1 [Compound 29, sodium 5-[(1S,5R,6R,7R)-2-oxa-4,4-difluoro-7-hydroxy-6-{(3R)-3-hydroxy-4-(3-methylphenyl)-E-1-butenyl}bicyclo[3.3.0]octan-3-ylidene]pentanoate]",> 90 days,99.1%,99.3%,> 0.2 µg/mL,> 0.2 µg/mL,,,,,,

# Further lines, with some results ahead:
half-life [1],remaining at 168 h [1],remaining at 480 h [1],"IC50 [2, 4]","IC50 [2, 5]",Compound,half-life ([3]; reported in literature),platelet aggregation inhibitory activities (in words) [2],chemical stability (in words) [1],physiological activities (in words) ([2]; stated generally as physiological activities),"half-life ([3]; as mentioned above, conditions not restated)",half-life in an aqueous solution ([3]; pH7.48 at 25° C.)
> 90 days,98.9%,97.8%,0.00079 µg/mL,0.00078 µg/mL,"CCC#CCC(C)[C@H](O)/C=C/[C@@H]1[C@@H]2[C@H](C[C@H]1O)O/C(=C\CCCC(=O)O)C2(F)F (stereo partly drawn) [Compound 15, sodium 5-[(1S,5R,6R,7R)-2-oxa-4,4-difluoro-7-hydroxy-6-{(3S,4RS)-3-hydroxy-4-methyl-E-1-nonen-6-ynyl}bicyclo-[3.3.0]octan-3-ylidene]pentanoate]",,even higher activities than natural type prostacyclin,,,,
> 90 days,99.3%,97.2%,0.0561 µg/mL,0.0604 µg/mL,"CCCCC[C@H](O)/C=C/[C@@H]1[C@@H]2[C@H](C[C@H]1O)O/C(=C\CCCC(=O)O)C2(F)F [Compound 19, sodium 5-[(1S,5R,6R,7R)-2-oxa-4,4-difluoro-7-hydroxy-6-{(3S)-3-hydroxy-E-1-octenyl}bicyclo[3.3.0]octan-3-ylidene]pentanoate]",,,,,,
> 90 days,100%,100%,0.059 µg/mL,0.0582 µg/mL,CCCC[C@H](C)C[C@@H](O)/C=C/[C@@H]1[C@@H]2[C@H](C[C@H]1O)O/C(=C\CCCC(=O)O)C2(F)F [Compound 23],,,,,,
> 90 days,102%,96.8%,0.0086 µg/mL,0.0078 µg/mL,"CCCC[C@H](C)C[C@H](O)/C=C/[C@@H]1[C@@H]2[C@H](C[C@H]1O)O/C(=C\CCCC(=O)O)C2(F)F [Compound 11, sodium 5-[(1S,5R,6R,7R)-2-oxa-4,4-difluoro-7-hydroxy-6-{(3S,5S)-3-hydroxy-5-methyl-E-1-nonenyl}bicyclo[3.3.0]octan-3-ylidene]pentanoate]",,activities close to natural type prostacyclin,,,,
> 90 days,102%,100%,0.00038 µg/mL,0.00039 µg/mL,"CCC#CC[C@H](C)[C@H](O)/C=C/[C@@H]1[C@@H]2[C@H](C[C@H]1O)O/C(=C\CCCC(=O)O)C2(F)F [Compound 17, sodium 5-[(1S,5R,6R,7R)-2-oxa-4,4-difluoro-7-hydroxy-6-{(3S,4S)-3-hydroxy-4-methyl-E-1-nonen-6-ynyl}bicyclo[3.3.0]octan-3-ylidene]pentanoate]",,even higher activities than natural type prostacyclin,,,,
